Measurements: patent publication US11672799B2, “1,4-disubstituted pyridazine quinolne analogs there of and methods for treating SMN-deficiency-related conditions” (Novartis AG, priority 2013, dated 2023)
Read-outs that look alike come from different tables or passages of the source.

Tested on: SMN protein
Assay: cellular SMN ELISA (SMN protein elevation) in myoblast cell line from SMNdelta7 mouse model
Assay type: cell-based
Experimental: A cellular SMN ELISA was used to measure the effects of low molecular weight compounds on SMN protein elevation. Cells from a myoblast cell line derived from the SMNdelta7 mouse model (kind gift from Steve Burden, NYU) were seeded into a 384-well plate at a density of 3000 cells/well and treated with compounds for 24 hours. ELISA capture plates were prepared by coating 384-well plates (Immulon 4HBX) with 0.5 ug/mL of anti-SMN mAb (BD Science, Catalog number 610647) at 4° C. overnight. The plates were washed 5 times with 110 uL of PBS-Tween (0.05% Tween-20, PBST), blocked with 100 uL of 1% BSA in PBST for 2 hours and washed (5 times) with 100 uL of PBST. After 24 hours of compound treatment cells were lysed in a modified RIPA-buffer, on ice for 1 hour. 20 uL of lysate and 20 uL of 1% BSA were then added to the ELISA capture plates and incubated at 4° C. overnight. Plates were washed (5 times) with PBST and then incubated with 1:100 dilution of primary rabbit anti-SMN polyclonal antibody (Santa cruz, Catalog number SC-15320) at room temperature for 1 hour and subsequently washed (5 times) with 110 uL of PBST. This was followed by addition of 1:100 Goat anti-Rabbit IgG-HRP linked (Cell Signaling, Catalog number 7074) secondary antibody for 1 hour. Plates were then washed with PBST and incubated with 40 uL TMB substrate (Cell Signaling, Catalog number 7004 L) at room temperature for 1-10 minutes with shaking. The reaction was stopped by addition of 40 uL of stop solution (Cell signaling, Catalog number 7002 L) and absorption was measured at 450 nm. Data was reported as fold activation over DMSO control, and EC50.
ELISA assay condition 1: compound concentration range 20 nM-10 uM; ELISA assay condition 2: compound concentration 100 pM-10 uM. Data generated in Biological Example 1 using ELISA conditions 1 or 2.

[1] = Biological Example 1, SMN ELISA, SMNdelta7 mouse myoblasts, 24 hours compound treatment
[2] = Biological Example 1, SMN ELISA, SMNdelta7 mouse myoblasts, 24 hours compound treatment, read-out: SMN Activity (EC50)
[3] = comparison of unsubstituted, ortho-hydroxy and ortho-alkoxy pyridazines, as in Biological Example 1
[4] = comparison of unsubstituted, ortho-hydroxy and ortho-alkoxy pyridazines, as in Biological Example 1, read-out: SMN ELISA EC50

CN(c1ccc(-c2cc3cncnc3cc2O)nn1)C1CC(C)(C)NC(C)(C)C1 [Example 23-1, 6-(6-(methyl(2,2,6,6-tetramethylpiperidin-4-yl)amino)pyridazin-3-yl)quinazolin-7-ol]
SMN Activity (fold activation over DMSO control) [1]: 3.6 fold
EC50 [2]: 41 nM

CN1C(=O)CCc2cc(-c3ccc(N(C)C4CC(C)(C)NC(C)(C)C4)nn3)c(O)cc21 [Example 24-1, 7-hydroxy-1-methyl-6-(6-(methyl(2,2,6,6-tetramethylpiperidin-4-yl)amino)pyridazin-3-yl)-3,4-dihydroquinolin-2(1H)-one]
SMN Activity (fold activation over DMSO control) [1]: 1.74 fold
EC50 [2]: 71 nM

CN(c1ccc(-c2cc3ccnc(C#N)c3cc2O)nn1)C1CC(C)(C)NC(C)(C)C1 [Example 26-1, 7-hydroxy-6-(6-(methyl(2,2,6,6-tetramethylpiperidin-4-yl)amino)pyridazin-3-yl)isoquinoline-1-carbonitrile]
SMN Activity (fold activation over DMSO control) [1]: 2.58 fold
EC50 [2]: 16 nM

CN(c1ccc(-c2cc3ccc(C#N)nc3cc2O)nn1)C1CC(C)(C)NC(C)(C)C1 [Example 26-2, 7-hydroxy-6-(6-(methyl(2,2,6,6-tetramethylpiperidin-4-yl)amino)pyridazin-3-yl)quinoline-2-carbonitrile]
SMN Activity (fold activation over DMSO control) [1]: 3.14 fold
EC50 [2]: 7 nM

CN(c1ccc(-c2cc3nc(C#N)ccc3cc2O)nn1)C1CC(C)(C)NC(C)(C)C1 [Example 26-3, 6-hydroxy-7-(6-(methyl(2,2,6,6-tetramethylpiperidin-4-yl)amino)pyridazin-3-yl)quinoline-2-carbonitrile]
SMN Activity (fold activation over DMSO control) [1]: 3.47 fold
EC50 [2]: 6 nM

CN(c1ccc(-c2cc3c(C(N)=O)nccc3cc2O)nn1)C1CC(C)(C)NC(C)(C)C1 [Example 26-4, 6-hydroxy-7-(6-(methyl(2,2,6,6-tetramethylpiperidin-4-yl)amino)pyridazin-3-yl)isoquinoline-1-carboxamide]
SMN Activity (fold activation over DMSO control) [1]: 2.57 fold
EC50 [2]: 7 nM

CN(c1ccc(-c2cc3ccc(C(N)=O)nc3cc2O)nn1)C1CC(C)(C)NC(C)(C)C1 [Example 26-5, 7-hydroxy-6-(6-(methyl(2,2,6,6-tetramethylpiperidin-4-yl)amino)pyridazin-3-yl)quinoline-2-carboxamide]
SMN Activity (fold activation over DMSO control) [1]: 2.16 fold
EC50 [2]: 1 nM

CN(c1ccc(-c2cc3nc(C(N)=O)ccc3cc2O)nn1)C1CC(C)(C)NC(C)(C)C1 [Example 26-6, 6-hydroxy-7-(6-(methyl(2,2,6,6-tetramethylpiperidin-4-yl)amino)pyridazin-3-yl)quinoline-2-carboxamide]
SMN Activity (fold activation over DMSO control) [1]: 2.6 fold
EC50 [2]: 7 nM

COC(=O)c1ccc2cc(O)c(-c3ccc(N(C)C4CC(C)(C)NC(C)(C)C4)nn3)cc2n1 [Example 26-7, methyl 6-hydroxy-7-(6-(methyl(2,2,6,6-tetramethylpiperidin-4-yl)amino)pyridazin-3-yl)quinoline-2-carboxylate]
SMN Activity (fold activation over DMSO control) [1]: 2.64 fold
EC50 [2]: 17 nM

N#Cc1ccc2cc(O)c(-c3ccc(N4CCNCC4)nn3)cc2n1 [Example 27-1, 6-hydroxy-7-(6-(piperazin-1-yl)pyridazin-3-yl)quinoline-2-carbonitrile]
SMN Activity (fold activation over DMSO control) [1]: 2.49 fold
EC50 [2]: 46 nM

N#Cc1ccc2cc(-c3ccc(N4CCNCC4)nn3)c(O)cc2n1 [Example 27-2, 7-hydroxy-6-(6-(piperazin-1-yl)pyridazin-3-yl)quinoline-2-carbonitrile]
SMN Activity (fold activation over DMSO control) [1]: 2.42 fold
EC50 [2]: 395 nM

Oc1cc2ccncc2cc1-c1ccc(N2CCNCC2)nn1 [Example 27-3, 7-(6-(piperazin-1-yl)pyridazin-3-yl)isoquinolin-6-ol]
SMN Activity (fold activation over DMSO control) [1]: 2.74 fold
EC50 [2]: 199 nM

Oc1cc2cccnc2cc1-c1ccc(C2=CCNCC2)nn1 [Example 28-1, 7-(6-(1,2,3,6-tetrahydropyridin-4-yl)pyridazin-3-yl)quinolin-6-ol]
SMN Activity (fold activation over DMSO control) [1]: 1.9 fold
EC50 [2]: 155 nM

Cc1nccc2cc(-c3ccc(N(C)C4CC(C)(C)NC(C)(C)C4)nn3)c(O)cc12 [Example 29-1, 1-methyl-6-(6-(methyl(2,2,6,6-tetramethylpiperidin-4-yl)amino)pyridazin-3-yl)isoquinolin-7-ol]
SMN Activity (fold activation over DMSO control) [1]: 2.96 fold
EC50 [2]: 14 nM

Cc1nccc2cc(O)c(-c3ccc(N(C)C4CC(C)(C)NC(C)(C)C4)nn3)cc12 [Example 29-2, 1-methyl-7-(6-(methyl(2,2,6,6-tetramethylpiperidin-4-yl)amino)pyridazin-3-yl)isoquinolin-6-ol]
SMN Activity (fold activation over DMSO control) [1]: 2.53 fold
EC50 [2]: 9 nM

CN(c1ccc(-c2cc3c(=O)n(C)ccc3cc2O)nn1)C1CC(C)(C)NC(C)(C)C1 [Example 35-1, 6-hydroxy-2-methyl-7-(6-(methyl(2,2,6,6-tetramethylpiperidin-4-yl)amino)pyridazin-3-yl)isoquinolin-1(2H)-one]
SMN Activity (fold activation over DMSO control) [1]: 2.43 fold
EC50 [2]: 3 nM

CCOc1nccc2cc(O)c(-c3ccc(N(C)C4CC(C)(C)NC(C)(C)C4)nn3)cc12 [Example 35-3, 1-ethoxy-7-(6-(methyl(2,2,6,6-tetramethylpiperidin-4-yl)amino)pyridazin-3-yl)isoquinolin-6-ol]
SMN Activity (fold activation over DMSO control) [1]: 2.26 fold
EC50 [2]: 13 nM

CC1(C)CC(Oc2ccc(-c3cc4c(O)nccc4cc3O)nn2)CC(C)(C)N1 [Example 35-4, 7-(6-((2,2,6,6-tetramethylpiperidin-4-yl)oxy)pyridazin-3-yl)isoquinoline-1,6-diol]
SMN Activity (fold activation over DMSO control) [1]: 3.26 fold
EC50 [2]: 96 nM

CN(c1ccc(-c2cc3cnc(-c4ccccc4)cc3cc2O)nn1)C1CC(C)(C)NC(C)(C)C1 [Example 36-1, 7-(6-(methyl(2,2,6,6-tetramethyl-piperidin-4-yl)amino)-pyridazin-3-yl)-3-phenylisoquinolin-6-ol]
SMN Activity (fold activation over DMSO control) [1]: 2.32 fold
EC50 [2]: 282 nM

Cc1cc2cc(O)c(-c3ccc(N(C)C4CC(C)(C)NC(C)(C)C4)nn3)cc2cn1 [Example 36-2, 3-methyl-7-(6-(methyl(2,2,6,6-tetramethylpiperidin-4-yl)amino)-pyridazin-3-yl)isoquinolin-6-ol]
SMN Activity (fold activation over DMSO control) [1]: 2.64 fold
EC50 [2]: 9 nM

Cc1cc2cc(O)c(-c3ccc(N4CCNCC4)nn3)cc2cn1 [Example 37-1, 3-methyl-7-(6-(piperazin-1-yl)pyridazin-3-yl)isoquinolin-6-ol]
SMN Activity (fold activation over DMSO control) [1]: 2.33 fold
EC50 [2]: 124 nM

Cc1cc(Cl)c2cc(-c3ccc(N(C)C4CC(C)(C)NC(C)(C)C4)nn3)c(O)cc2n1 [Preparation 11, 4-chloro-2-methyl-6-(6-(methyl(2,2,6,6-tetramethylpiperidin-4-yl)amino)pyridazin-3-yl)quinolin-7-ol]
SMN Activity (fold activation over DMSO control) [1]: 2.6 fold
EC50 [2]: 280 nM

CN(c1ccc(-c2cc3c(Cl)ccnc3cc2O)nn1)C1CC(C)(C)NC(C)(C)C1 [Preparation 12, 4-chloro-6-(6-(methyl(2,2,6,6-tetramethylpiperidin-4-yl)amino)pyridazin-3-yl)quinolin-7-ol]
SMN Activity (fold activation over DMSO control) [1]: 2.6 fold
EC50 [2]: 30 nM

CN(c1ccc(-c2cc3nccc(Cl)c3cc2O)nn1)C1CC(C)(C)NC(C)(C)C1 [Preparation 13, 4-chloro-7-(6-(methyl(2,2,6,6-tetramethylpiperidin-4-yl)amino)pyridazin-3-yl)quinolin-6-ol]
SMN Activity (fold activation over DMSO control) [1]: 2.6 fold
EC50 [2]: 7 nM

CN(c1ccc(-c2ccc3ncccc3c2)nn1)C1CC(C)(C)NC(C)(C)C1 [drawing 135 R = H]
Fold activation [3]: 2.2
EC50 [4]: 660 nM

CN(c1ccc(-c2ccc3cccnc3c2)nn1)C1CC(C)(C)NC(C)(C)C1 [drawing 136 R = H]
Fold activation [3]: 2.5
EC50 [4]: 370 nM

COc1cc2cccnc2cc1-c1ccc(N(C)C2CC(C)(C)NC(C)(C)C2)nn1 [drawing 136 R = OMe, 6-(6-Methoxyquinolin-7-yl)-N-methyl-N-(2,2,6,6-tetramethylpiperidin-4-yl)pyridazin-3-amine]
Fold activation [3]: 1.7
EC50 [4]: 1170 nM

CN(c1ccc(-c2ccc3ccncc3c2)nn1)C1CC(C)(C)NC(C)(C)C1 [drawing 137 R = H]
Fold activation [3]: 2.7
EC50 [4]: 250 nM

CN(c1ccc(-c2ccc3cnccc3c2)nn1)C1CC(C)(C)NC(C)(C)C1 [drawing 138 R = H]
Fold activation [3]: 2.7
EC50 [4]: 320 nM
